Measurements from patent publication US20160271263A1 (Novo Nordisk A/S, priority 2010, published 2016).
Numbered stars: 1 amine (or outer) side, 2 acyl side, 3 side chain; on linkers, the order of the positions; unused ones are H or OH. Side chains are listed from the residue outwards. Peptide text beside a SMILES is read from it. * marks the point of attachment. C18 diacid = O=C(O)CCCCCCCCCCCCCCCCC(=O)*; γGlu = O=C(O)[C@H](CCC(=O)[*:2])N[*:1]; AEEA = NCCOCCOCC(=O)O

Target: glucagon receptor (Homo sapiens, UniProt P47871)
Sequence (P47871 26-477): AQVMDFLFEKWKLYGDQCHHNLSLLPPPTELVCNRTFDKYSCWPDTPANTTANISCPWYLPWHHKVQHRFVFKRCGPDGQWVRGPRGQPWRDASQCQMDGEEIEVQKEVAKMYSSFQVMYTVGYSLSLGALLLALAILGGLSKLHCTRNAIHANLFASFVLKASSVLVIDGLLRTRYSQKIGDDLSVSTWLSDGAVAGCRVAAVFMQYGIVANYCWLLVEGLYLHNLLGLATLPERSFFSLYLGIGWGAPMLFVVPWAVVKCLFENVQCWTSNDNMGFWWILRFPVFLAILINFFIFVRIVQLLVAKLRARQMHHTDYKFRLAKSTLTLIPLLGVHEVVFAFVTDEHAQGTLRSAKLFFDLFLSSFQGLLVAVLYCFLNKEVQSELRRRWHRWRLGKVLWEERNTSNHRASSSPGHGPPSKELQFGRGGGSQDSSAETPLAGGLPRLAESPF
Assay: cell-based

SMILES | EC50 [nM]
CC(C)C[C@H](NC(=O)[C@H](Cc1ccc(O)cc1)NC(=O)[C@H](CCCCN)NC(=O)[C@H](CO)NC(=O)[C@H](Cc1ccc(O)cc1)NC(=O)[C@H](CC(=O)O)NC(=O)[C@H](CO)NC(=O)[C@@H](NC(=O)[C@H](Cc1ccccc1)NC(=O)[C@@H](NC(=O)CNC(=O)[C@H](CCC(N)=O)NC(=O)[C@H](CO)NC(=O)[C@@H](N)Cc1c[nH]cn1)[C@@H](C)O)[C@@H](C)O)C(=O)N[C@@H](CC(=O)O)C(=O)N[C@@H](CO)C(=O)N[C@@H](CCCNC(=N)N)C(=O)N[C@@H](CCCNC(=N)N)C(=O)N[C@@H](C)C(=O)N[C@@H](CCC(=O)O)C(=O)N[C@@H](CCC(=O)O)C(=O)N[C@@H](Cc1ccccc1)C(=O)N[C@H](C(=O)N[C@@H](CCCCNC(=O)CC[C@H](NC(=O)CC[C@H](NC(=O)COCCOCCNC(=O)CC[C@H](NC(=O)CCCCCCCCCCCCCCCCC(=O)O)C(=O)O)C(=O)O)C(=O)O)C(=O)N[C@@H](Cc1c[nH]c2ccccc12)C(=O)N[C@@H](CC(C)C)C(=O)N[C@@H](CC(C)C)C(=O)N[C@@H](CO)C(=O)N[C@H](C(=O)O)[C@@H](C)O)C(C)C [Example 93, N^ε24-[(4S)-4-carboxy-4-[[(4S)-4-carboxy-4-[[2-[2-[2-[[(4S)-4-carboxy-4-(17-carboxyheptadecanoylamino)butanoyl]amino]ethoxy]ethoxy]acetyl]amino]butanoyl]amino]butanoyl]-[Glu^20,Glu^21,Lys^24,Leu^27,Ser^28]-Glucagon] (H-HSQGTFTSDYSKYLDSRRAEEFVK([γGlu-γGlu-AEEA-γGlu-C18 diacid])WLLST-OH) | 0.12
CC(C)C[C@H](NC(=O)[C@H](Cc1ccc(O)cc1)NC(=O)[C@H](CCCCN)NC(=O)[C@H](CO)NC(=O)[C@H](Cc1ccc(O)cc1)NC(=O)[C@H](CC(=O)O)NC(=O)[C@H](CO)NC(=O)[C@@H](NC(=O)[C@H](Cc1ccccc1)NC(=O)[C@@H](NC(=O)CNC(=O)[C@H](CCC(N)=O)NC(=O)[C@H](CO)NC(=O)[C@@H](N)Cc1c[nH]cn1)[C@@H](C)O)[C@@H](C)O)C(=O)N[C@@H](CC(=O)O)C(=O)N[C@@H](CO)C(=O)N[C@@H](CCCNC(=N)N)C(=O)N[C@@H](CCCNC(=N)N)C(=O)N[C@@H](C)C(=O)N[C@@H](CCCCNC(=O)CC[C@H](NC(=O)CC[C@H](NC(=O)COCCOCCNC(=O)COCCOCCNC(=O)CC[C@H](NC(=O)CCCCCCCCCCCCCCCCC(=O)O)C(=O)O)C(=O)O)C(=O)O)C(=O)N[C@@H](CC(=O)O)C(=O)N[C@@H](Cc1ccccc1)C(=O)N[C@H](C(=O)N[C@@H](CCC(N)=O)C(=O)N[C@@H](Cc1c[nH]c2ccccc12)C(=O)N[C@@H](CC(C)C)C(=O)N[C@@H](CC(C)C)C(=O)N[C@@H](CC(N)=O)C(=O)N[C@H](C(=O)O)[C@@H](C)O)C(C)C [Example 98, N^ε20-[(4S)-4-carboxy-4-[[(4S)-4-carboxy-4-[[2-[2-[2-[[2-[2-[2-[[(4S)-4-carboxy-4-(17-carboxyheptadecanoylamino)butanoyl]amino]ethoxy]ethoxy]acetyl]amino]ethoxy]ethoxy]acetyl]amino]butanoyl]amino]butanoyl]-[Lys^20,Leu^27]-Glucagon] | 0.058
